In publication PMC8154124, “Design, Synthesis, Anticancer Evaluation, Enzymatic Assays, and a Molecular Modeling Study of Novel Pyrazole–Indole Hybrids” (ACS Omega, 2021):

Experiments:
Format in all cases: cell-based
[1] = test system: human colorectal carcinoma (HCT-116); assay: MTT cytotoxicity assay, HCT-116; conditions: 48 h, mean ± SD
Procedure: (§1) The cells of human liver carcinoma (HepG2), human breast adenocarcinoma (MCF-7), human colorectal carcinoma (HCT-116), and human lung carcinoma (A549) were purchased from the American Type Culture Collection (Rockville, MD). All cells were maintained in a Dulbecco’s modified Eagle’s medium (DMEM), which was supplemented with 10% of heat-inactivated fetal bovine serum (FBS) and 100 U/mL penicillin and streptomycin each. The cells were grown at 37 °C in a humidified atmosphere of 5% CO2.
(§2) The cytotoxicity activities on the human liver carcinoma (HepG2), human breast adenocarcinoma (MCF-7), human colorectal carcinoma (HCT-116), and human lung carcinoma (A549) cell lines were estimated employing the 3-(4,5-dimethyl-2-thiazolyl)-2,5-diphenyl-2H-tetrazolium bromide (MTT) assay, which was grounded on the reduction of the tetrazolium salt by mitochondrial dehydrogenases in viable cells.[51],[52] The cells were dispensed in a 96-well sterile microplate (3 × 10^4 cells/well), followed by their incubation at 37 °C with a series of different concentrations of 10 μL of each compound or doxorubicin (positive control, in DMSO) for 48 h in a serum-free medium prior to the MTT assay. Subsequently, the media were carefully removed, and 40 μL of MTT (2.5 mg/mL) was added to each well and then incubated for an additional 4 h. Purple formazan dye crystals were solubilized by the addition of 200 μL of DMSO. The absorbance was measured at 570 nm using a SpectraMax Paradigm Multi-Mode microplate reader. The relative cell viability was expressed as the mean percentage of viable cells relative to the untreated control cells. All experiments were conducted in triplicate and were repeated on three different days. All of the values were represented as mean ± standard deviation (SD). The IC50s were determined by the SPSS probit analysis software program (SPSS Inc., Chicago, IL).

[2] = test system: human breast adenocarcinoma (MCF-7); assay: MTT cytotoxicity assay, MCF-7; conditions: MCF7, 48 h, mean ± SD
Procedure: as §1, §2

[3] = test system: human liver carcinoma (HepG2); assay: MTT cytotoxicity assay, HepG2; conditions: 48 h, mean ± SD
Procedure: as §1, §2

[4] = test system: human lung carcinoma (A549); assay: MTT cytotoxicity assay, A549; conditions: 48 h, mean ± SD
Procedure: as §1, §2

SMILES | IC50 [1] [µM] | IC50 [2] [µM] | IC50 [3] [µM] | IC50 [4] [µM]
CN1C(=O)C(=Nc2[nH]nc(Nc3ccccc3)c2C(=O)Nc2ccccc2)c2ccccc21 [5a, 5-(1-Methyl-2-oxoindolin-3-ylideneamino)-N-phenyl-3-(phenylamino)-1H-pyrazole-4-carboxamide] | 25.7 ± 3.5 | 28.3 ± 3.5 | 27.6 ± 3.1 | 42.8 ± 4.2
Cc1ccc(NC(=O)c2c(Nc3ccccc3)n[nH]c2N=C2C(=O)N(C)c3ccccc32)cc1 [5b, 5-(1-Methyl-2-oxoindolin-3-ylideneamino)-3-(phenylamino)-N-(4-methylphenyl)-1H-pyrazole-4-carboxamide] | 28.1 ± 3.5 | 48 ± 5.1 | 37.1 ± 4.3 | 46.7 ± 4.9
COc1ccc(Nc2n[nH]c(N=C3C(=O)N(C)c4ccccc43)c2C(=O)Nc2ccccc2)cc1 [5d, 3-(4-Methoxyphenylamino)-5-(1-methyl-2-oxoindolin-3-ylideneamino)-N-phenyl-1H-pyrazole-4-carboxamide] | 54.2 ± 5.5 | 46.4 ± 4.5 | 34.8 ± 3.9 | 56 ± 4.1
COc1ccc(Nc2n[nH]c(N=C3C(=O)N(C)c4ccccc43)c2C(=O)Nc2ccc(C)cc2)cc1 [5e, 3-(4-Methoxyphenylamino)-5-(1-methyl-2-oxoindolin-3-ylideneamino)-N-(4-methylphenyl)-1H-pyrazole-4-carboxamide] | 39.9 ± 4.2 | 61.8 ± 5.1 | 32 ± 3.9 | 77.7 ± 5.6
CCN1C(=O)C(=Nc2[nH]nc(Nc3ccccc3)c2C(=O)Nc2ccccc2)c2ccccc21 [5f, 5-(1-Ethyl-2-oxoindolin-3-ylideneamino)-N-phenyl-3-(phenylamino)-1H-pyrazole-4-carboxamide] | 28.9 ± 3.9 | 42.1 ± 4.7 | 23.7 ± 3.1 | 52.9 ± 4.5
CCN1C(=O)C(=Nc2[nH]nc(Nc3ccccc3)c2C(=O)Nc2ccc(C)cc2)c2ccccc21 [5g, 5-(1-Ethyl-2-oxoindolin-3-ylideneamino)-3-(phenylamino)-N-(4-methylphenyl)-1H-pyrazole-4-carboxamide] | 35.7 ± 3.9 | 54 ± 4.9 | 27.8 ± 3.5 | 46.8 ± 5.3
CCN1C(=O)C(=Nc2[nH]nc(Nc3ccc(OC)cc3)c2C(=O)Nc2ccccc2)c2ccccc21 [5i, 5-(1-Ethyl-2-oxoindolin-3-ylideneamino)-3-(4-methoxyphenylamino)-N-phenyl-1H-pyrazole-4-carboxamide] | 53.9 ± 5.7 | 30.1 ± 4.2 | 26.7 ± 3.1 | 47.8 ± 4.5
CCN1C(=O)C(=Nc2[nH]nc(Nc3ccc(OC)cc3)c2C(=O)Nc2ccc(C)cc2)c2ccccc21 [5j, 5-(1-Ethyl-2-oxoindolin-3-ylideneamino)-3-(4-methoxyphenylamino)-N-(4-methylphenyl)-1H-pyrazole-4-carboxamide] | 38.9 ± 4.1 | 63.7 ± 5.5 | 24.4 ± 2.9 | 57 ± 4.9
COc1ccc(Nc2n[nH]c(N=Cc3c[nH]c4ccccc34)c2C(=O)Nc2ccccc2)cc1 [7d, 5-((1H-Indol-3-yl)methyleneamino)-3-(4-methoxyphenylamino)-N-phenyl-1H-pyrazole-4-carboxamide] | 25.3 ± 3.5 | 17.4 ± 2.3 | 27.2 ± 3.5 | 58.7 ± 4.2
COc1ccc(Nc2n[nH]c(N=Cc3c[nH]c4ccccc34)c2C(=O)Nc2ccc(C)cc2)cc1 [7e, 5-((1H-Indol-3-yl)methyleneamino)-3-(4-methoxyphenylamino)-N-(4-methylphenyl)-1H-pyrazole-4-carboxamide] | 37.4 ± 4.1 | 16.2 ± 2.3 | 25.8 ± 3.5 | 40.8 ± 4.3
COc1cccc2c1C(=O)c1c(O)c3c(c(O)c1C2=O)C[C@@](O)(C(=O)CO)C[C@@H]3O[C@H]1C[C@H](N)[C@H](O)[C@H](C)O1 [doxorubicin, reference compound] | 40 ± 3.9 | 64.8 ± 4.1 | 24.7 ± 3.2 | 58.1 ± 4.1
